Experimental data reported in patent US12145959B2, “Bile acid recycling inhibitors for treatment of hypercholemia and cholestatic liver disease” (SHIRE HUMAN GENETIC THERAPIES, INC., priority 2011, dated 2024).

Experiments:
[1] = test system: Male Zucker diabetic fatty rats (ZDF/GmiCrl-fa/fa); experiment: ZDF rat study of 264W94: fecal bile acid excretion, fecal NEFA and plasma bile acids; assay type: in vivo; details: 2 weeks
Experimental: Animal preparation. Male Zucker diabetic fatty rats (ZDF/GmiCrl-fa/fa) were purchased from Charles River (Raleigh, NC) and housed under controlled conditions (12:12 light-dark cycle, 24° C. and 50% relative humidity) with free access to rodent food (Purina 5008, Harlan Teklad, Indianapolis, IN). All rats arrived at seven weeks of age (+3 days). After a one-week acclimation period, rats were anesthetized with isoflurane (Abbott Laboratories, IL) and tail-vein blood samples were collected at 9 am without fasting. Blood glucose levels were measured using a glucometer (Bayer, Leverkusen, Germany). In order to ensure balanced treatment groups, ZDF rats were assigned to six treatment groups based upon baseline glucose: vehicle (0.5% HPMC, 0.1% Tween80) and five doses of 264W94 (0.001, 0.01, 0.1, 1, 10 mg/kg). All treatments were given via oral gavage twice a day and animals were followed for two weeks with blood samples collected from tail vein at the end of each week at 9 am without fasting. Fecal samples were collected for 24 hours during the second week of treatment.
Measurement of clinical chemistry parameters. Non-esterified fatty acids (NEFA), bile acids, and bile acids in fecal extraction were measured using the Olympus AU640 clinical chemistry analyzer (Beckman Coulter, Irving, TX).

[2] = test system: Male ZDF rats; experiment: Plasma bile acid levels of ZDF rats after ascending doses of SC-435 and LUM002; assay type: in vivo, rat; details: ZDF rats n=4; oral gavage twice a day 2 weeks; all doses (SC-435 1, 10, 30 mg/kg; LUM002 0.3, 1, 3, 10, 30 mg/kg); end of second week
Experimental: (§1) FIG. 2. Plasma bile acid levels of ZDF rats after administration of ascending doses of SC-435 and LUM002. Male ZDF rats (n=4) were administered vehicle, SC-435 (1, 10 or 30 mg/kg) or LUM002 (0.3, 1, 3, 10 or 30 mg/kg) by oral gavage twice a day for 2 weeks. Plasma bile acid levels were determined at the end of the second week. Data are expressed as mean values±SEM.
as §1, with “Plasma” for “FIG. 2. Plasma”, “week. […]” for “week.”

[3] = test system: Male beagle dogs; experiment: Time to onset of activity of a single oral dose on postprandial total serum bile acids in beagle dogs; assay type: in vivo, dog
Experimental: Animal Study on the Duration of Action and Time to Onset of ASBTI Activity of a Single Oral Dose of LUM001 on Postprandial Total Serum Bile Acids in Beagle Dogs
Test compound: LUM001—Form I
(§2) Dosage preparation and administration: LUM001 was dissolved in water at concentrations that required the administration of 0.2 ml/kg of solution. Solutions were placed into gelatin capsules, Torpac Inc., size 13 Batch 594, East Hanover NJ, and administered orally.
(§3) Dogs: Male beagle dogs were obtained from Covance Research Products, Cumberland VA or Marshall Farms USA, Inc., North Rose NY A total of 20 dogs, 1 to 5 years old, 6.8 to 15.6 kg body weight, were used in these experiments. The dogs were conditioned to a 12 hour light/dark cycle and maintained on a feeding restriction of 1 hour per day access to food (Richman Standard Certified Canine Diet #5007, PMI Nutrition, Inc., St Louis MO) from 7 to 8 AM. They were trained to eat a special meal promptly within 20 minutes when presented (1 can. 397 g, Evanger's 100% Beef for Dogs, Evanger's Dog and Cat Food Co., Inc., Wheeling IL, mixed with 50 g of sharp cheddar cheese.).
(§4) Serum Total Bile Acid (SBA) Measurement: SBA was measured by an enzymatic assay. SBA values are expressed as μg of total bile acids/ml of serum.
To estimate the details of this plateau, 6 dogs were given a test meal and blood samples for SBA measurement were collected at −30, 0, 30, 60, 65, 70, 80, 90, 120, 180, 240, 360, 480, 720, 1410 and 1440 minutes from the time of feeding. Any remaining food was removed 20 min after it was first presented to the dogs. To establish a method for extending the elevated plateau of SBA, 6 dogs were given the meal at 0 hr and an additional ½ size meal again 4 hr after their first meal. Blood samples were taken at 0, 1, 2, 3, 4, 4.5, 6, 7 and 8 hr. The curves for SBA level vs time obtained in these experiments were used as references for determining blood sampling times in experiments with LUM001. […]

[4] = test system: Male beagle dogs; experiment: Duration of action on dog serum bile acids, Method 2: one meal and extended interval between dosing and feeding; assay type: in vivo; details: administered 2 hours prior to feeding
Experimental: as §2, §3, §4
Method 2: One Meal and Extended Interval Between Dosing and Feeding: Alternatively, 6 dogs were dosed with water or LUM001, at 0.05 mg/kg, p.o. at 1.5 hours prior to being fed, or 0.05, or 0.2 mg/kg, at 2 hours prior to feeding. This moved the elevated SBA plateau out in time from the dose point. […]

[5] = test system: healthy adult subjects; experiment: Phase 1 ascending multiple oral dose study: serum and fecal bile acid analysis; assay type: in vivo, human; details: healthy adults; ascending multiple oral doses qAM, 28 days
Experimental: FIG. 3. Serum bile acid (SBA) analysis of healthy subjects after administration of ascending multiple oral doses of LUM001 a randomized, double-blind, placebo-controlled study. Shown in the graphs are data from the 0.5 (n=16), 1.0 (n=8), 2.5 (n=8), 5.0 (n=8) and 10 (n=8) mg dosing groups. On Day 1, blood was drawn for baseline SBA at approximately 30 minutes before and after breakfast and 30 minutes after lunch and dinner. Samples were obtained on day 14.
FIG. 4. Fecal bile acid analysis of healthy subjects after administration of ascending multiple oral doses of LUM001 a randomized, double-blind, placebo-controlled study. […]
SBA were analyzed as part of the routine clinical analysis of the serum samples collected at each time point.
Fecal Bile Acid Analysis: Fecal samples were collected for all panels except the dose-titration panel, 2.5 (2) and 5 mg (2), on Days 9 through 14 and 23 through 28 (data shown in FIG. 4). Twenty-four hour FBA excretions were quantified by Pharmacia for Days 9 through 14 and 23 through 28. […] The weight of each 24-hour fecal collection was recorded on the CRFs. […]
An aliquot for each 24-hour fecal sample collected on Days 23 through 28 was combined, homogenized, and analyzed for bile acid species concentrations by ANAPHARM. The fecal bile acid species evaluated include chenodeoxycholic acid, cholic acid, deoxycholic acid, and lithocholic acid.

[6] = Systemic exposure (pharmacokinetics) of LUM001 in patients under 18, study NB-00-02-014; assay type: in vivo, human; details: QD in the morning, measured on day eight
Experimental: (§5) LUM001 has been administered to forty patients under the age of 18 years old. […] The drug was administered once-a-day (QD) in the morning for fourteen days. […] These doses are similar to those using to treat patients with cholestatic diseases.

[7] = test system: children and adolescents under the age of eighteen; experiment: Human study of fasting and post-prandial peak serum bile acids in children and adolescents; assay type: in vivo
Experimental: FIG. 5. Fasting serum bile acid levels and morning post-prandial peak in children under the age of 12. LUM001 was administered once-a-day (QD) in the morning for fourteen days.
Human Study to Test Efficacy of ASBTI in Lowering Serum Bile Acids
as §5
The efficacy of LUM001 was determined by measuring total serum bile acids after eight days of dosing in children and adolescents under the age of eighteen. Thirty minutes before the next drug administration, at approximately 8 am in the morning, serum bile acid levels were measured. The child had refrained from food for 12 hours prior to this sample thus providing a fasted level of serum bile acid. After breakfast, serum bile acids were measured for up to the next 4 hours (8 am to noon) and the peak serum bile acid concentration noted.

[8] = test system: Male beagle dogs; details: previous experiments (2); cited from earlier work
[9] = FIG. 5 legend: children under the age of 12, QD for fourteen days
[10] = LUM001 treated patients under eighteen, after eight days of dosing
[11] = patients under eighteen, after eight days of dosing

In the case of CCCC[C@]1(CC)CS(=O)(=O)c2cc(OC)c(OC)cc2[C@@H](c2ccccc2)N1 [Compound 264W94], the “Fecal bile acid concentrations elevated, compared to vehicle treated rats” value ([1]; 0.001-10 mg/kg oral gavage twice a day, 24 h feces in second week, maximum elevation) is reported as “up to 6.5 fold” and the “Bile acids in the feces” value ([1]; oral administration twice a day) is reported as “dose-dependently increased”.

In the case of CCCCC1(CCCC)CS(=O)(=O)c2ccc(N(C)C)cc2[C@@H](c2ccc(OCCCC[N+]34CCN(CC3)CC4)cc2)[C@H]1O.CS(=O)(=O)[O-] [SC-435, 1-[4-[4-[(4R,5R)-3,3-dibutyl-7-(dimethylamino)-2,3,4,5-tetrahydro-4-hydroxy-1,1-dioxido-1-benzothiepin-5-yl]phenoxy]butyl]4-aza-1-azoniabicyclo[2.2.2]octane methanesulfonate salt, reference compound], the “Plasma bile acid levels” value [2] is reported as “decreased”.

For CCCCC1(CCCC)CS(=O)(=O)c2ccc(N(C)C)cc2[C@@H](c2ccc(OCc3ccc(C[N+]45CCN(CC4)CC5)cc3)cc2)[C@H]1O [LUM001], the “Effect of increasing the dose on onset time to significant SBA lowering” value ([3]; 1 mg/kg versus 0.2 mg/kg) was “did not shorten the onset time”, the ED50 ([3]; Canis lupus familiaris, oral, read-out: ED50 dose in the dog SBA model) was 0.2 mg/kg and the “Threshold dose for significant lowering of SBA levels” value ([3]; oral, 1 hour after feeding) was 0.05 mg/kg. For the same compound, the “Dose required to produce a significant effect on SBA” value [4] was 0.2 mg/kg, the Fecal bile acids [5] was “significant increase” and the Serum bile acids [5] was “significant reduction”. The “Systemic absorption (levels of systemic exposure)” value [6] was “minimally absorbed”, the “Decrease in average fasting serum bile acid level versus placebo patients” value [7, 9] was 24% and the “Decrease in average post-prandial peak serum bile acid level versus placebo patients” value [7, 9] was 23%. For the same compound, the “Average fasting serum bile acid level” value [7, 10] was 6.5 µmol/L, the “Average post-prandial peak serum bile acid level” value [7, 10] was 9.2 µmol/L and the “Decrease in average fasting serum bile acid level versus placebo patients” value [7, 11] was 24%. For the same compound, the “Decrease in average post-prandial peak serum bile acid level versus placebo patients” value [7, 11] was 23% and the “Time that the compound remains active” value [8] was “more than 4.5 hours”.

With CCCC[C@]1(CC)CS(=O)(=O)c2ccc(N(C)C)cc2[C@@H](c2cccc(NC(=O)N[C@@H]3O[C@H](COS(=O)(=O)[O-])[C@@H](O)[C@H](OCc4ccccc4)[C@H]3O)c2)[C@H]1O.[K+] [LUM002] the “Plasma bile acid levels” value [2] was “decreased”.
